As usually defined, the IC90 is the concentration at which the effect reaches the 90% level.

Counter-ions that a name gives are not always drawn.

From US11390604B2 (Hoffmann-La Roche Inc., priority 2019, dated 2022) come the findings set out here.

For this test, the system named is Acinetobacter baumannii ATCC 17961. The experiment in a line: Antimicrobial susceptibility testing: 90% growth inhibitory concentration (IC90) determination. The following applies: ATCC17961, Acinetobacter baumannii ATCC 17961, Iso-Sensitest broth, read-out: ATCC 17961 IC90. The class given is cell-based. In short, it runs like this: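 Growth was followed kinetically by OD600 at 20-min intervals for 16 h at 35±2 °C, with ~5×10^5 CFU/ml in Iso-Sensitest broth. Compounds were tested as twofold dilutions (e.g. 50–0.097 μM final). The concentration giving 90% inhibition of log-phase growth was reported.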
In the case of `Cn1c(-c2cn(C3CC3)nc2C(F)(F)F)cnc1C(=O)Nc1ccc(C(=O)NC2CC3(CC(N)C3)C2)c(Cl)c1` (stereo not drawn) [Example 317, N-(4-((6-aminospiro[3.3]heptan-2-yl)carbamoyl)-3-chlorophenyl)-5-(1-cyclopropyl-3-(trifluoromethyl)-1H-pyrazol-4-yl)-1-methyl-1H-imidazole-2-carboxamide hydrochloride], the IC90 amounted to 393 nM.

Regarding `Cn1c(-c2cn(C3CC3)nc2C(F)(F)F)cnc1C(=O)Nc1ccc(C(=O)N2CCN(C(=O)C3(O)CCNC3)CC2)c(Cl)c1` (stereo not drawn) [Example 318, N-[3-chloro-4-[4-(3-hydroxypyrrolidine-3-carbonyl)piperazine-1-carbonyl]phenyl]-5-[1-cyclopropyl-3-(trifluoromethyl)pyrazol-4-yl]-1-methylimidazole-2-carboxamide;hydrochloride], the IC90 came to 396 nM.

Take `Cn1c(-c2cn(C3CC3(F)F)nc2C(F)(F)F)cnc1C(=O)Nc1ccc(C(=O)NC2CC3CNCC32)c(Cl)c1` (stereo not drawn) [Example 319, N-(4-((3-azabicyclo[3.2.0]heptan-6-yl)carbamoyl)-3-chlorophenyl)-5-(1-(2,2-difluorocyclopropyl)-3-(trifluoromethyl)-1H-pyrazol-4-yl)-1-methyl-1H-imidazole-2-carboxamide formate]: the IC90 worked out at 398 nM.

Turning to `Cn1c(-c2cn(C3CC3)nc2C(F)(F)F)cnc1C(=O)Nc1ccc(C(=O)N2CCN(C(=O)NCC3(O)CCNCC3)CC2)c(Cl)c1` [Example 320, 4-(2-chloro-4-(5-(1-cyclopropyl-3-(trifluoromethyl)-1H-pyrazol-4-yl)-1-methyl-1H-imidazole-2-carboxamido)benzoyl)-N-((4-hydroxypiperidin-4-yl)methyl)piperazine-1-carboxamide formate], the IC90 was found to be 403 nM.

`Cn1c(-c2cn(C3CC3)nc2C(F)(F)F)cnc1C(=O)Nc1ccc(C(=O)N2CCN(C(=O)[C@@H]3C[C@@H](O)CN3)CC2)c(Cl)c1` [Example 321, N-(3-chloro-4-(4-((2S,4R)-4-hydroxypyrrolidine-2-carbonyl)piperazine-1-carbonyl)phenyl)-5-(1-cyclopropyl-3-(trifluoromethyl)-1H-pyrazol-4-yl)-1-methyl-1H-imidazole-2-carboxamide hydrochloride]: the IC90 was 403 nM.

For the compound `Cn1c(-c2cn(C3CC3)nc2C(F)(F)F)cnc1C(=O)Nc1ccc(C(=O)N[C@H]2[C@@H]3CN(C(=O)N4CC[C@@H](N)C4)C[C@@H]32)c(Cl)c1` [Example 322, N-(4-((exo-3-((R)-3-aminopyrrolidine-1-carbonyl)-3-azabicyclo[3.1.0]hexan-6-yl)carbamoyl)-3-chlorophenyl)-5-(1-cyclopropyl-3-(trifluoromethyl)-1H-pyrazol-4-yl)-1-methyl-1H-imidazole-2-carboxamide formate], the IC90 turned out to be 407 nM.

`Cn1c(-c2cn(C3CC3)nc2C(F)(F)F)cnc1C(=O)Nc1ccc(C(=O)N2CCC(C3CCNCC3)CC2)c(Cl)c1` [Example 323, N-(4-([4,4′-bipiperidine]-1-carbonyl)-3-chlorophenyl)-5-(1-cyclopropyl-3-(trifluoromethyl)-1H-pyrazol-4-yl)-1-methyl-1H-imidazole-2-carboxamide formate]: the IC90 came out at 407 nM.

For the compound `C[C@H](N)C(=O)N[C@H]1CC[C@@H](NC(=O)c2ccc(NC(=O)c3ncc(-c4cn(CC#N)nc4C(F)(F)F)n3C)cc2Cl)CC1` [Example 324, N-[4-[[4-[[(2S)-2-aminopropanoyl]amino]cyclo-hexyl]carbamoyl]-3-chlorophenyl]-5-[1-(cyanomethyl)-3-(trifluoromethyl)pyrazol-4-yl]-1-methylimidazole-2-carboxamide;2,2,2-trifluoroacetic acid], the IC90 was 408 nM.

For the compound `CCn1cc(-c2cnc(C(=O)Nc3ccc(C(=O)N4CCN(C(=O)N[C@H]5C[C@@H](N)C5)CC4)c(Br)c3)n2C)c(C(F)(F)F)n1` [Example 325, rac-N-((is,3s)-3-aminocyclobutyl)-4-(2-bromo-4-(5-(1-ethyl-3-(trifluoromethyl)-1H-pyrazol-4-yl)-1-methyl-1H-imidazole-2-carboxamido)benzoyl)piperazine-1-carboxamidee formate], the 90% effect concentration (IC90) stood at 411 nM.

Regarding `Cn1c(-c2cn(CC#N)nc2C(F)(F)F)cnc1C(=O)Nc1ccc(C(=O)N[C@H]2C[C@@H](NC(=O)N3CCCC(N)C3)C2)c(Cl)c1` (stereo partly drawn) [Example 326, 3-amino-N-[3-[[2-chloro-4-[[5-[1-(cyanomethyl)-3-(trifluoromethyl)pyrazol-4-yl]-1-methyl-imidazole-2-carbonyl]amino]benzoyl]amino]cyclobutyl]piperidine-1-carboxamide; formic acid], the IC90 came to 411 nM.

`Cn1c(-c2cn(CC3CCC3)nc2C(F)(F)F)cnc1C(=O)Nc1ccc(C(=O)N2CCN(C(=O)[C@H]3CC[C@@H](N)C3)CC2)c(Cl)c1` [Example 327, N-(4-(4-((1S,3R)-3-aminocyclopentane-1-carbonyl)piperazine-1-carbonyl)-3-chlorophenyl)-5-(1-(cyclobutylmethyl)-3-(trifluoromethyl)-1H-pyrazol-4-yl)-1-methyl-1H-imidazole-2-carboxamide hydrochloride]: the IC90 stood at 414 nM.

`Cn1c(-c2cn(CC#N)nc2C(F)(F)F)cnc1C(=O)Nc1ccc(C(=O)N[C@H]2C[C@@H](NC(=O)N3CC4CC3CN4)C2)c(Cl)c1` (stereo partly drawn) [Example 328, N-[3-[[2-chloro-4-[[5-[1-(cyanomethyl)-3-(trifluoromethyl)pyrazol-4-yl]-1-methyl-imidazole-2-carbonyl]amino]benzoyl]amino]cyclobutyl]-2,5-diazabicyclo[2.2.1]heptane-2-carboxamide; formic acid]: the IC90 amounted to 420 nM.

As to `CCn1cc(-c2cnc(C(=O)Nc3ccc(C(=O)N4CCN(C(=O)CN)CC4)c(Cl)c3)n2C)c(C(F)(F)F)n1` [Example 330, N-[4-[4-(2-aminoacetyl)piperazine-1-carbonyl]-3-chlorophenyl]-5-[1-ethyl-3-(trifluoromethyl)pyrazol-4-yl]-1-methylimidazole-2-carboxamide;hydrochloride], the IC90 worked out at 421 nM.

On to `Cn1c(-c2cn(CCOC(F)(F)F)nc2C(F)(F)F)cnc1C(=O)Nc1ccc(C(=O)N2CCN(C(=O)C3CCNCC3)CC2)c(Cl)c1` [Example 332, N-(3-chloro-4-(4-(piperidine-4-carbonyl)piperazine-1-carbonyl)phenyl)-1-methyl-5-(1-(2-(trifluoromethoxy)ethyl)-3-(trifluoromethyl)-1H-pyrazol-4-yl)-1H-imidazole-2-carboxamide hydrochloride], for which the IC90 was determined as 422 nM.

Turning to `Cn1c(-c2cn(C3CC3)nc2C(F)(F)F)cnc1C(=O)Nc1ccc(C(=O)N[C@H]2[C@@H]3CN(C(=O)N[C@@H]4CCC[C@@H]4N)C[C@@H]32)c(Cl)c1` [Example 334, exo-N-((1R,2S)-2-aminocyclopentyl)-6-(2-chloro-4-(5-(1-cyclopropyl-3-(trifluoromethyl)-1H-pyrazol-4-yl)-1-methyl-1H-imidazole-2-carboxamido)benzamido)-3-azabicyclo[3.1.0]hexane-3-carboxamide formate], the IC90 was 423 nM.

In the case of `Cn1c(-c2cn(CC3CCC3)nc2C(F)(F)F)cnc1C(=O)Nc1ccc(C(=O)N2CCN(C(=O)[C@@H]3C[C@@H](O)CN3)CC2)c(Cl)c1` [Example 335, N-(3-chloro-4-(4-((2S,4R)-4-hydroxypyrrolidine-2-carbonyl)piperazine-1-carbonyl)phenyl)-5-(1-(cyclobutylmethyl)-3-(trifluoromethyl)-1H-pyrazol-4-yl)-1-methyl-1H-imidazole-2-carboxamide bis(2,2,2-trifluoroacetate)], the IC90 came out at 426 nM.

Consider `Cn1c(-c2cn(CC(F)F)nc2C(F)(F)F)cnc1C(=O)Nc1ccc(C(=O)N2CCNCC2)c(Cl)c1` [Example 336, N-(3-chloro-4-(piperazine-1-carbonyl)phenyl)-5-(1-(2,2-difluoroethyl)-3-(trifluoromethyl)-1H-pyrazol-4-yl)-1-methyl-1H-imidazole-2-carboxamide formate], for which the IC90 is 426 nM.

Regarding `Cn1c(-c2cn(C3CC3)nc2C(F)(F)F)cnc1C(=O)Nc1ccc(C(=O)N2CCN(S(=O)(=O)N3CCNCC3)CC2)c(Cl)c1` [Example 338, N-(3-chloro-4-(4-(piperazin-1-ylsulfonyl)piperazine-1-carbonyl)phenyl)-5-(1-cyclopropyl-3-(trifluoromethyl)-1H-pyrazol-4-yl)-1-methyl-1H-imidazole-2-carboxamide formate], the IC90 came out at 427 nM.

In the case of `Cn1c(-c2cn(C3CC3)nc2C(F)(F)F)cnc1C(=O)Nc1ccc(C(=O)N2CCC(C(=O)N[C@H]3C[C@H](N)C3)CC2)c(Cl)c1` [Example 339, N-(3-aminocyclobutyl)-1-[2-chloro-4-[[5-[1-cyclopropyl-3-(trifluoromethyl)pyrazol-4-yl]-1-methyl-imidazole-2-carbonyl]amino]benzoyl]piperi-dine-4-carboxamide; formic acid], the IC90 was found to be 427 nM.

In the case of `CCc1cc(NC(=O)c2ncc(-c3cn(CC#N)nc3C(F)(F)F)n2C)ccc1C(=O)N1CCN(C(=O)[C@H]2C[C@H](N)C2)CC1` [Example 340, N-[4-[4-(3-aminocyclobutanecarbonyl)piper-azine-1-carbonyl]-3-ethyl-phenyl]-5-[1-(cyanomethyl)-3-(trifluoromethyl)pyrazol-4-yl]-1-methyl-imidazole-2-carboxamide; formic acid], the IC90 worked out at 428 nM.

As for `Cn1c(-c2cn(C3CC3(F)F)nc2C(F)(F)F)cnc1C(=O)Nc1ccc(C(=O)NC2CNCC2O)c(Cl)c1` (stereo not drawn) [Example 341, N-(3-chloro-4-((4-hydroxypyrrolidin-3-yl)carbamoyl)phenyl)-5-(1-(2,2-difluorocyclopropyl)-3-(trifluoromethyl)-1H-pyrazol-4-yl)-1-methyl-1H-imidazole-2-carboxamide formate], the IC90 came out at 430 nM.
